The target in one assay is CSF1R (FMS) (Homo sapiens, UniProt P07333). In words: Z'-LYTE SelectScreen biochemical kinase assay CSF1R (FMS). The source says:
(§1) Thermo Fisher Scientific SelectScreen™ Biochemical Kinase Profiling Service Z′-LYTE™ Screening Protocol and Assay Conditions Assay Theory
(§2) The […] biochemical assay employs a fluorescence-based, coupled-enzyme format and is based on the differential sensitivity of phosphorylated and non-phosphorylated peptides to proteolytic cleavage. The peptide substrate is labeled with two fluorophores—one at each end—that make up a FRET pair. In the primary reaction, the kinase transfers the gamma-phosphate of ATP to a single tyrosine, serine or threonine residue in a synthetic FRET-peptide. In the secondary reaction, a site-specific protease recognizes and cleaves non-phosphorylated FRET-peptides. Phosphorylation of FRET-peptides suppresses cleavage by the Development Reagent. Cleavage disrupts FRET between the donor (i.e., coumarin) and acceptor (i.e., fluorescein) fluorophores on the FRET-peptide, whereas uncleaved, phosphorylated FRET-peptides maintain FRET. A ratiometric method, which calculates the ratio (Emission Ratio=Coumarin emission (445 nm)/Fluorescein emission (520 nm)) of donor emission to acceptor emission after excitation of the donor fluorophore at 400 nm, is used to quantitate reaction progress, as shown in the equation below. A significant benefit of this ratiometric method for quantitating reaction progress is the elimination of well-to-well variations in FRET-peptide concentration and signal intensities. As a result, the assay yields very high Z′-factor values (>0.7) at a low percent phosphorylation. Both cleaved and uncleaved FRET-peptides contribute to the fluorescence signals and therefore to the Emission Ratio. The extent of phosphorylation of the FRET-peptide can be calculated from the Emission Ratio. The Emission Ratio will remain low if the FRET-peptide is phosphorylated (i.e., no kinase inhibition) and will be high if the FRET-peptide is non-phosphorylated (i.e., kinase inhibition).
(§3) The Test Compounds are screened in 1% DMSO (final) in the well. For 10 point titrations, 3-fold serial dilutions are conducted from the starting concentration of the customer's choosing.
(§4) All Peptide/Kinase Mixtures are diluted to a 2× working concentration in the appropriate Kinase Buffer (see section Kinase Specific Assay Conditions for a complete description).
(§5) All ATP Solutions are diluted to a 4× working concentration in Kinase Buffer (50 mM HEPES pH 7.5, 0.01% BRIJ-35, 10 mM MgCl2, 1 mM EGTA). ATP Km apparent is previously determined using a Z″-LYTE assay.
(§6) The Development Reagent is diluted in Development Buffer (see section Kinase-Specific Assay Conditions—Direct and Cascade for a complete description).
(§7) Bar-coded Corning, low volume NBS, black 384-well plate (Corning Cat. #4514) • 1. 100 nL—100× Test Compound in 100% DMSO • 2. 2.4 μL—Kinase buffer • 3. 5 μL—2× Peptide/Kinase Mixture • 4. 2.5 μL—4×ATP Solution • 5. 30—second plate shake • 6. 60—minute Kinase Reaction incubation at room temperature • 7. 5 μL—Development Reagent Solution • 8. 30—second plate shake • 9. 60—minute Development Reaction incubation at room temperature • 10. Read on fluorescence plate reader and analyze the data Z′-LYTE Assay Controls
(§8) SelectScreen Kinase Profiling Service uses XLfit from IDBS. The dose response curve is curve fit to model number 205 (sigmoidal dose-response model).
The 2×CSF1R (FMS)/Tyr 01 mixture is prepared in 50 mM HEPES pH 7.5, 0.01% BRIJ-35, 10 mM MgCl2, 1 mM EGTA. The final 10 μL Kinase Reaction consists of 0.2-40 ng CSF1R (FMS) and 2 μM Tyr 01 in 50 mM HEPES pH 7.5, 0.01% BRIJ-35, 10 mM MgCl2, 1 mM EGTA. After the 1 hour Kinase Reaction incubation, 5 μL of a 1:256 dilution of Development Reagent B is added.

The target in the next assay is RPS6KB1 (p70S6K) (Homo sapiens, UniProt P23443). Nature of the assay: Z'-LYTE SelectScreen biochemical kinase assay RPS6KB1 (p70S6K).
Source text: as §1, §2, §3, §4, §5, §6, §7, §8
The 2×RPS6 KB1 (p70S6K)/Ser/Thr 07 mixture is prepared in 50 mM HEPES pH 7.5, 0.01% BRIJ-35, 10 mM MgCl2, 1 mM EGTA. The final 10 μL Kinase Reaction consists of 2.87-17.7 ng RPS6 KB1 (p70S6K) and 2 μM Ser/Thr 07 in 50 mM HEPES pH 7.5, 0.01% BRIJ-35, 10 mM MgCl2, 1 mM EGTA. After the 1 hour Kinase Reaction incubation, 5 μL of a 1:45000 dilution of Development Reagent A is added.

In a further assay the target is FGFR1 (Homo sapiens, UniProt P11362). In words: Z'-LYTE SelectScreen biochemical kinase assay FGFR1.
Source text: as §1, §2, §3, §4, §5, §6, §7, §8
The 2×FGFR1/Tyr 04 mixture is prepared in 50 mM HEPES pH 7.5, 0.01% BRIJ-35, 10 mM MgCl2, 4 mM MnCl2, 1 mM EGTA, 2 mM DTT. The final 10 μL Kinase Reaction consists of 0.44-2.45 ng FGFR1 and 2 μM Tyr 04 in 50 mM HEPES pH 7.5, 0.01% BRIJ-35, 10 mM MgCl2, 2 mM MnCl2, 1 mM EGTA, 1 mM DTT. After the 1 hour Kinase Reaction incubation, 5 μL of a 1:64 dilution of Development Reagent B is added.

The next assay addresses PDGFRA (PDGFR alpha) (Homo sapiens, UniProt P16234). In words: Z'-LYTE SelectScreen biochemical kinase assay PDGFRA (PDGFR alpha).
Source text: as §1, §2, §3, §4, §5, §6, §7, §8
The 2×PDGFRA (PDGFR alpha)/Tyr 04 mixture is prepared in 50 mM HEPES pH 7.5, 0.01% BRIJ-35, 10 mM MgCl2, 4 mM MnCl2, 1 mM EGTA, 2 mM DTT. The final 10 μL Kinase Reaction consists of 1.54-22.6 ng PDGFRA (PDGFR alpha) and 2 μM Tyr 04 in 50 mM HEPES pH 7.5, 0.01% BRIJ-35, 10 mM MgCl2, 2 mM MnCl2, 1 mM EGTA, 1 mM DTT. After the 1 hour Kinase Reaction incubation, 5 μL of a 1:64 dilution of Development Reagent B is added.

The mark [1] stands for this setting: 10 μmolar compound concentration, ATP at Km app, read-out: CSF1R (FMS) inhibition.
Setting [2] is: read-out: % Inhibition mean CSF1R (FMS).
Where [3] appears, read: 10 μmolar compound concentration, ATP at Km app, read-out: RPS6KB1 (p70S6K) inhibition.
Setting [4] is: read-out: % Inhibition mean RPS6KB1 (p70S6K).
Setting [5] is: 10 μmolar compound concentration, ATP at Km app, read-out: FGFR1 inhibition.
Setting [6] is: read-out: % Inhibition mean FGFR1.
The mark [7] stands for this setting: 10 μmolar compound concentration, ATP at Km app, read-out: PDGFRA (PDGFR alpha) inhibition.
[8] abbreviates: read-out: % Inhibition mean PDGFRA (PDGFR alpha).

Read-outs that look alike come from different tables or passages of the source.

Chain of CSF1R (FMS) (P07333 20-972): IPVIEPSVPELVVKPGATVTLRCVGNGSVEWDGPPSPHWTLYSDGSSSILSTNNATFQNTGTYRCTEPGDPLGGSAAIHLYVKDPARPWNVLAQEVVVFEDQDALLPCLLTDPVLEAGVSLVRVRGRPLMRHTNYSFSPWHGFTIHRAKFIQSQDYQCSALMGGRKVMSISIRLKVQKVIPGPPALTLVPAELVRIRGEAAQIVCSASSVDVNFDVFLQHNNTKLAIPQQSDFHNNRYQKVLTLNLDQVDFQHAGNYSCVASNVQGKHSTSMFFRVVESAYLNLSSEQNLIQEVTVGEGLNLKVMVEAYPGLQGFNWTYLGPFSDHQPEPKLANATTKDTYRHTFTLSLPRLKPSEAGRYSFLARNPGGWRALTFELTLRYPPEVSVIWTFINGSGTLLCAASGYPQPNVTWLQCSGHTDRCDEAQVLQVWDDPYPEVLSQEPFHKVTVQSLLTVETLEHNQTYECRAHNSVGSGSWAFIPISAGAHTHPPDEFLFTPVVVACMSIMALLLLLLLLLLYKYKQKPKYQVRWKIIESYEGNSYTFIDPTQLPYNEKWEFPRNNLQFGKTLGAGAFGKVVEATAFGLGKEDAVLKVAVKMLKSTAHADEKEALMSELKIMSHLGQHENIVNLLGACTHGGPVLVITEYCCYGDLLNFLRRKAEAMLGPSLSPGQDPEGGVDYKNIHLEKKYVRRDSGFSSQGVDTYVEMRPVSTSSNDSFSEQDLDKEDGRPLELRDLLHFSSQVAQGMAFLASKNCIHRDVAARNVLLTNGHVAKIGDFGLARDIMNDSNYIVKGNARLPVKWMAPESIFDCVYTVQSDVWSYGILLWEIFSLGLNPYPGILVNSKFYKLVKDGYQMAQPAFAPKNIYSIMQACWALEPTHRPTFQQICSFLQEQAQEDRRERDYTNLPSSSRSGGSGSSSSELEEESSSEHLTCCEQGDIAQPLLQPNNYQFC
Chain of PDGFRA (PDGFR alpha) (P16234 24-1089): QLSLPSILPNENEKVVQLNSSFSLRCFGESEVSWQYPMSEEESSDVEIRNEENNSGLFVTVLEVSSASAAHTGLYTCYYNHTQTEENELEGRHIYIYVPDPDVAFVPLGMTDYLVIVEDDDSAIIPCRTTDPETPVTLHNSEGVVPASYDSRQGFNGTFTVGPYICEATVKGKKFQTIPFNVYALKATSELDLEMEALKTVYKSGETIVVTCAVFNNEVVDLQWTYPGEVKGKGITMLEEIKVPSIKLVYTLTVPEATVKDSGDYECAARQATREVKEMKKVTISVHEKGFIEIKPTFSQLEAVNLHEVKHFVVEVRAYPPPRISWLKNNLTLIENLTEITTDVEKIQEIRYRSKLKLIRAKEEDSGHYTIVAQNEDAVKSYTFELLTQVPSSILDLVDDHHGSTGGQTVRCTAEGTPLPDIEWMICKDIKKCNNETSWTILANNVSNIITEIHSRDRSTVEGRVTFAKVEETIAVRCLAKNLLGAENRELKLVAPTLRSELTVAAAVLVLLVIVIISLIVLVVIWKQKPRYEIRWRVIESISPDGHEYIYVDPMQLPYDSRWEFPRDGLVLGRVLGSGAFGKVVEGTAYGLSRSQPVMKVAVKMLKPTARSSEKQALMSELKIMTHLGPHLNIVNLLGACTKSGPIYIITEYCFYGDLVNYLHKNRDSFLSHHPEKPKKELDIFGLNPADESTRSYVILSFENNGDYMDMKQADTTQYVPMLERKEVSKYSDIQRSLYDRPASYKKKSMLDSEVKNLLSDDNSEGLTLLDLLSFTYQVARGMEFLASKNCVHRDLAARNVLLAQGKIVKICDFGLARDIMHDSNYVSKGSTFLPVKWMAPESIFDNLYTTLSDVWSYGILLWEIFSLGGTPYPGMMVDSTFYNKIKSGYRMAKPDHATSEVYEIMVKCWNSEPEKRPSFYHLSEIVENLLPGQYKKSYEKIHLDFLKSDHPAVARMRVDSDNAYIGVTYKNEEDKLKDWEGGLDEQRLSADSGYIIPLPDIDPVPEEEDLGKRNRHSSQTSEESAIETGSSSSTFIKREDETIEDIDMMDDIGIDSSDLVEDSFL
Chain of FGFR1 (P11362 22-822): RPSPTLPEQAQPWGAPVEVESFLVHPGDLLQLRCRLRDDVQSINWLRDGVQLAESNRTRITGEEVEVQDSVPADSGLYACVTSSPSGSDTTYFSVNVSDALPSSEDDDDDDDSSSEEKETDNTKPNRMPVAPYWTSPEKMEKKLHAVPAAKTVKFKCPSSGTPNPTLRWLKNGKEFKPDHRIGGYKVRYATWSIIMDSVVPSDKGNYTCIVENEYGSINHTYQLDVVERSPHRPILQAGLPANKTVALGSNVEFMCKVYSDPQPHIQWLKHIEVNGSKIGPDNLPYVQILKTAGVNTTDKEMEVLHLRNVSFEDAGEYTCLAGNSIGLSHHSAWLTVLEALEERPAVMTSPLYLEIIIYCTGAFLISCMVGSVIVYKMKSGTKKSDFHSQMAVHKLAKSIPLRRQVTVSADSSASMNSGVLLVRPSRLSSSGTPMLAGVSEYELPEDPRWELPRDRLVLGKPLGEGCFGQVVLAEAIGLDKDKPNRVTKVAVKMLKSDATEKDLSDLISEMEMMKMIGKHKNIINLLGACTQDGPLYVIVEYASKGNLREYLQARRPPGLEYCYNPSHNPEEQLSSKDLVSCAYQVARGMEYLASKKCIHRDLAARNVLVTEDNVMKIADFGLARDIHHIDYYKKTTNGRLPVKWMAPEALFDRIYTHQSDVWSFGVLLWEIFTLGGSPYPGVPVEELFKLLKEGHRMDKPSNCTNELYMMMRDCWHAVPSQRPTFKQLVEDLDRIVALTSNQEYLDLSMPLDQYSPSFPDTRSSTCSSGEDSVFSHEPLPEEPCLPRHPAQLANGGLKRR
Chain of RPS6KB1 (p70S6K) (P23443 whole entry): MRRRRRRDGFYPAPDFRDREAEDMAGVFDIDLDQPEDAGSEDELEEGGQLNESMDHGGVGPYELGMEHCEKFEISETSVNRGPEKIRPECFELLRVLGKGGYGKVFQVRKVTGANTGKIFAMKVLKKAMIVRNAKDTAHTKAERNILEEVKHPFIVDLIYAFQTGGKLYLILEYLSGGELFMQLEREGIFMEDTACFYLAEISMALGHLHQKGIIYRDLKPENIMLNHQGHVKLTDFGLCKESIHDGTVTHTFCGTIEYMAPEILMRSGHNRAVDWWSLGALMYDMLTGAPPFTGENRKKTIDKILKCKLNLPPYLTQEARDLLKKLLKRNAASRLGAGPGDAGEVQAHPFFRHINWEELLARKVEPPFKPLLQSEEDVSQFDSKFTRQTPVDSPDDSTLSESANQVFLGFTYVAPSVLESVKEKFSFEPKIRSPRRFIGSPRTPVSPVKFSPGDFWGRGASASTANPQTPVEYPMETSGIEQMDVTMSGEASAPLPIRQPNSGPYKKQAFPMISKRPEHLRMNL

What is called inhibition is the drop in the measured response relative to a control, in per cent. For the compound `CCn1ncc2c1CCC(Nc1nc3c(-c4cncc(OC)c4)cccn3n1)C2` (stereo not drawn) [Example 70, (1-Ethyl-4,5,6,7-tetrahydro-1H-indazol-5-yl)-[8-(5-methoxy-pyridin-3-yl)-[1,2,4]triazolo[1,5-a]pyridine-2-yl]-amine], the inhibition at 10 µM at CSF1R (FMS) (setting [1]) was > 80%; on CSF1R (FMS) (setting [2]) it was 83%; on RPS6KB1 (p70S6K) (setting [3]), < 40%; at RPS6KB1 (p70S6K) (setting [4]), -3%; at FGFR1 (setting [5]) it was < 40%; on FGFR1 (setting [6]), 18%. For the same compound, the values for the inhibition at 10 µM at PDGFRA (PDGFR alpha) (setting [7]) and on PDGFRA (PDGFR alpha) (setting [8]) were < 40% and 17%, respectively.

On to `CCCCn1ncc2c1CCC(Nc1nc3c(-c4ccc(F)cc4C)cccn3n1)C2` (stereo not drawn) [Example 46, [8-(4-fluoro-2-methyl-phenyl)-[1,2,4]triazolo[1,5-a]pyridine-2-yl]-(1-butyl-4,5,6,7-tetrahydro-1H-indazol-5-yl)-amine], for which the inhibition at 10 µM is < 40% at CSF1R (FMS) (setting [1]); 24% on CSF1R (FMS) (setting [2]); < 40% on RPS6KB1 (p70S6K) (setting [3]); 6% at RPS6KB1 (p70S6K) (setting [4]); < 40% at FGFR1 (setting [5]); 21% at FGFR1 (setting [6]). The inhibition at 10 µM on PDGFRA (PDGFR alpha) (setting [7]) was < 40%; on PDGFRA (PDGFR alpha) (setting [8]), 25%.

`CCn1ncc2c1C(C)CC(Nc1nc3c(-c4cc(F)c(F)c(F)c4)cccn3n1)C2` (stereo not drawn) [Example 49, (1-Ethyl-7-methyl-4,5,6,7-tetrahydro-1H-indazol-5-yl)-[8-(3,4,5-trifluoro-phenyl)-[1,2,4]triazolo[1,5-a]pyridine-2-yl]-amine]: the inhibition at 10 µM was < 40% on CSF1R (FMS) (setting [1]); 34% on CSF1R (FMS) (setting [2]); < 40% on RPS6KB1 (p70S6K) (setting [3]); 33% on RPS6KB1 (p70S6K) (setting [4]); < 40% on FGFR1 (setting [5]); 9% on FGFR1 (setting [6]). The inhibition at 10 µM at PDGFRA (PDGFR alpha) (setting [7]) is < 40%; on PDGFRA (PDGFR alpha) (setting [8]), 29%.

Regarding `CC1(C)NC(=O)c2ccc(Nc3nc4c(-c5cccc(F)c5)cccn4n3)cc21` [Cpd. 302 in WO09155551, reference compound], the inhibition at 10 µM was > 80% on CSF1R (FMS) (setting [1]); 95% on CSF1R (FMS) (read-out: % Inhibition mean); > 80% on RPS6KB1 (p70S6K) (setting [3]); 86% at RPS6KB1 (p70S6K) (read-out: % Inhibition mean); > 80% on FGFR1 (setting [5]); 97% at FGFR1 (read-out: % Inhibition mean). Besides, the results for the inhibition at 10 µM on PDGFRA (PDGFR alpha) (setting [7]) and on PDGFRA (PDGFR alpha) (read-out: % Inhibition mean) were > 80% and 89%, respectively.

For the compound `CCn1ncc2c1CCC(Nc1nc3c(-c4cccnc4OC)cccn3n1)C2` (stereo not drawn) [Example 69, (1-Ethyl-4,5,6,7-tetrahydro-1H-indazol-5-yl)-[8-(2-methoxy-pyridin-3-yl)-[1,2,4]triazolo[1,5-a]pyridine-2-yl]-amine], the inhibition at 10 µM was < 40% at CSF1R (FMS) (setting [1]); 8% at CSF1R (FMS) (setting [2]); < 40% on RPS6KB1 (p70S6K) (setting [3]); 31% at RPS6KB1 (p70S6K) (setting [4]); < 40% on FGFR1 (setting [5]); 20% at FGFR1 (setting [6]). Besides, the inhibition at 10 µM at PDGFRA (PDGFR alpha) (setting [7]) was < 40%; at PDGFRA (PDGFR alpha) (setting [8]) it was 17%.

Regarding `CC1(C)C(=O)Nc2ccc(Nc3nc4c(-c5cccc(F)c5)cccn4n3)cc21` [Cpd. 263 in WO09155551, reference compound], the inhibition at 10 µM was > 80% at CSF1R (FMS) (setting [1]); 93% on CSF1R (FMS) (read-out: % Inhibition mean); > 80% on RPS6KB1 (p70S6K) (setting [3]); 93% on RPS6KB1 (p70S6K) (read-out: % Inhibition mean); > 80% at FGFR1 (setting [5]); 99% on FGFR1 (read-out: % Inhibition mean). In addition, the inhibition at 10 µM is > 80% on PDGFRA (PDGFR alpha) (setting [7]) and 86% at PDGFRA (PDGFR alpha) (read-out: % Inhibition mean).

For `Cc1cc(F)ccc1-c1cccn2nc(NC3CCc4c(cnn4C(C)C)C3)nc12` (stereo not drawn) [Example 44, [8-(4-fluoro-2-methyl-phenyl)-[1,2,4]triazolo[1,5-a]pyridine-2-yl]-(1-isopropyl-4,5,6,7-tetrahydro-1H-indazol-5-yl)-amine], the inhibition at 10 µM at CSF1R (FMS) (setting [1]) is 40 to 80%; at CSF1R (FMS) (setting [2]), 43%; on RPS6KB1 (p70S6K) (setting [3]) it was < 40%; on RPS6KB1 (p70S6K) (setting [4]), 12%; at FGFR1 (setting [5]), < 40%; at FGFR1 (setting [6]), 20%. Moreover, the inhibition at 10 µM on PDGFRA (PDGFR alpha) (setting [7]) was < 40%; at PDGFRA (PDGFR alpha) (setting [8]), 5%.

With `CCn1ncc2c1CCC(Nc1nc3c(-c4ccc(F)cc4C)cccn3n1)C2` (stereo not drawn) [Example 42, (1-Ethyl-4,5,6,7-tetrahydro-1H-indazol-5-yl)-[8-(4-fluoro-2-methyl-phenyl)-[1,2,4]triazolo[1,5-a]pyridine-2-yl]-amine], the inhibition at 10 µM on CSF1R (FMS) (setting [1]) is < 40%; on CSF1R (FMS) (setting [2]), 34%; at RPS6KB1 (p70S6K) (setting [3]), < 40%; at RPS6KB1 (p70S6K) (setting [4]), 6%; at FGFR1 (setting [5]), < 40%; at FGFR1 (setting [6]) it was 16%. In addition, the inhibition at 10 µM at PDGFRA (PDGFR alpha) (setting [7]) was < 40%; on PDGFRA (PDGFR alpha) (setting [8]), 12%.

For `CCc1nn(C)c2c1CCC(Nc1nc3c(-c4ccc(F)cc4C)cccn3n1)C2` (stereo not drawn) [Example 54, (3-Ethyl-1-methyl-4,5,6,7-tetrahydro-1H-indazol-6-yl)-[8-(4-fluoro-2-methyl-phenyl)-[1,2,4]triazolo[1,5-a]pyridine-2-yl]-amine], the inhibition at 10 µM is < 40% at CSF1R (FMS) (setting [1]); 27% at CSF1R (FMS) (setting [2]); < 40% at RPS6KB1 (p70S6K) (setting [3]); 1% on RPS6KB1 (p70S6K) (setting [4]); < 40% on FGFR1 (setting [5]); -3% on FGFR1 (setting [6]). Also, the inhibition at 10 µM is < 40% on PDGFRA (PDGFR alpha) (setting [7]) and 30% at PDGFRA (PDGFR alpha) (setting [8]).

These data come from patent US11339161B2, “Triazolo pyridines as modulators of gamma-secretase” (Boehringer Ingelheim International GmbH, priority 2017, dated 2022).
